BindingDB's records for PubMed 7751958 (Cnrs Ccipe, 1995)
Several values for one entry are separate records, joined by “and”; a condition that tells them apart may be missing. Identical values can stand only once.

What was measured:
[1] = biological target: Glutamate metabotropic receptor 1 (Sus scrofa, UniProt F1S737)
[2] = biological target: Glutamate metabotropic receptor 5 (Cavia porcellus, UniProt H0VDS0)
Chain of Glutamate metabotropic receptor 5 (H0VDS0 whole entry): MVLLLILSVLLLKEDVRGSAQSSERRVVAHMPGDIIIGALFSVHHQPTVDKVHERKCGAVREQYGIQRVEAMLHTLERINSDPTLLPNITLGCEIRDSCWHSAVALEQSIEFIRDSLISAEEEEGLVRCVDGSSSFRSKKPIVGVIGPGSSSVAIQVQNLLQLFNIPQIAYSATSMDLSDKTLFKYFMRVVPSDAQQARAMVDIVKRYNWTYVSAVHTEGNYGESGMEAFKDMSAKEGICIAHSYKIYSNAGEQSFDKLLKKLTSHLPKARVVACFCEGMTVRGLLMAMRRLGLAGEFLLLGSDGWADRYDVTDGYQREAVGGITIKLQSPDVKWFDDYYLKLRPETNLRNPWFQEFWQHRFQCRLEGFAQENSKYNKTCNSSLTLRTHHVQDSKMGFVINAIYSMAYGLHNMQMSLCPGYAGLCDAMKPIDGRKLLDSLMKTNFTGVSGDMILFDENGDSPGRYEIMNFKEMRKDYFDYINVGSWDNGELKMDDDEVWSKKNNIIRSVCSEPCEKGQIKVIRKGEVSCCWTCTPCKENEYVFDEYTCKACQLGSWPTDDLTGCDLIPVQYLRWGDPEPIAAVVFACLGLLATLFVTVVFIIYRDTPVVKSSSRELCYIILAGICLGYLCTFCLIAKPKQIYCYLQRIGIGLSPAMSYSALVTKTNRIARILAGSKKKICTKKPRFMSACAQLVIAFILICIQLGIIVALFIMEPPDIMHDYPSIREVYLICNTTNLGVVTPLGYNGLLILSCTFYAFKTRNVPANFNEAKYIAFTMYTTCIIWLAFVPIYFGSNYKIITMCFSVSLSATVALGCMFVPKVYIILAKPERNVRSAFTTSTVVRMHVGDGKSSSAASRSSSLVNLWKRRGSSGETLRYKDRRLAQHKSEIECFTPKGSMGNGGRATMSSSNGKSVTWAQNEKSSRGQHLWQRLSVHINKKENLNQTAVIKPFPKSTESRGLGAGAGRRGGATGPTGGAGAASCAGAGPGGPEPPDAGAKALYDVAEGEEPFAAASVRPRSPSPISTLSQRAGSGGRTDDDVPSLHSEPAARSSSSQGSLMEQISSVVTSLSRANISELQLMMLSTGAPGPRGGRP

Chain of Glutamate metabotropic receptor 1 (F1S737 whole entry): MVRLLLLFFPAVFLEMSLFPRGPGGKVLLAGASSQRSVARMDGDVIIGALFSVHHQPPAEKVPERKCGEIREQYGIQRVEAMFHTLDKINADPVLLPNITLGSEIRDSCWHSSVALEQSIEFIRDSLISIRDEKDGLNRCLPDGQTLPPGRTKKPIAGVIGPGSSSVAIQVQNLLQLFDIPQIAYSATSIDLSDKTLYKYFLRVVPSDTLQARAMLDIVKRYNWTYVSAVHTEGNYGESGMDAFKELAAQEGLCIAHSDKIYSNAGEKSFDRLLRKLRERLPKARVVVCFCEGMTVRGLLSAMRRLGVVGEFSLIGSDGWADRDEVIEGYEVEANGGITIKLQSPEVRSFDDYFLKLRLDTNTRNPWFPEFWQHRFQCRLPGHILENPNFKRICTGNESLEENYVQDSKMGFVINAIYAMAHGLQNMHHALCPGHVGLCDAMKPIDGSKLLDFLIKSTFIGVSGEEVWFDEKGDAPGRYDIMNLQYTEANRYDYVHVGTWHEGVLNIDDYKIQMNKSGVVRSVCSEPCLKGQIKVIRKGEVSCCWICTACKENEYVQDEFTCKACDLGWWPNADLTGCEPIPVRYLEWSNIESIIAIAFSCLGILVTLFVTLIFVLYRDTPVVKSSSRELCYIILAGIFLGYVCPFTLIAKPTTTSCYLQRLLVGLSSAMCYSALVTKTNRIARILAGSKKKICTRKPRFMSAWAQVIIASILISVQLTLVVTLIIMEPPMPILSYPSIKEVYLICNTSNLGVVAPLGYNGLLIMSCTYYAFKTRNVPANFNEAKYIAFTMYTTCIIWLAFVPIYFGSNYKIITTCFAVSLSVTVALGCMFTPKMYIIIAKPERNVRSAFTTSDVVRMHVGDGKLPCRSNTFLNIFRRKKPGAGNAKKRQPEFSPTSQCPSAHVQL

Row | Structure (SMILES) | Ki [1] | Ki [2]
1 | N[C@]1(C(=O)O)CC[C@@H](C(=O)O)C1 | > 10 µM | > 10 µM
2 | N[C@@]1(C(=O)O)CC[C@H](C(=O)O)C1 [1S, 3R-ACPD] | > 10 µM and 9.3 µM | > 10 µM and 6.7 µM and 5.3 µM
3 | N[C@@H](CCC(=O)O)C(=O)O [L-Glutamic acid] | > 10 µM | 9.75 µM and 7.67 µM
4 | NC(C(=O)O)c1cc(=O)[nH]o1 (stereo not given) [Amino-(3-hydroxy-isoxazol-5-yl)-acetic acid(Ibotenic acid)] | > 10 µM | 2.87 µM and 1.93 µM
5 | N[C@@H](Cn1oc(=O)[nH]c1=O)C(=O)O [2-amino-3-(3,5-dioxo[1,2,4]oxadiazolidin-2-yl)propionic acid] | 0.26 µM | 0.022 µM and 0.047 µM
